Like-named read-outs stand apart in the source and are kept apart here.
Tests used:
[1] = tested on: Aurantiochytrium acetophilum HS399
Procedure: In one implementation, a 250 mL Erlenmeyer flask can be used to cultivate A. acetophilum HS399.
In one implementation, a 250 mL Erlenmeyer flask can be used to cultivate A. acetophilum HS399. […] Cell dry weights may be analyzed using a filtration method. Ammonia can be measured using a Cedex bio-analyzer (Roche). […] The fatty acid profile of the biomass can be analyzed using gas chromatography.

[2] = tested on: Aurantiochytrium acetophilum HS399; test: Propionate concentration and OCFA titers, flask (Example 13); format: cell-based; settings: 96 h
From the text: The trace element solution contains (g/L): […] The vitamin solution contains (mg/L): thiamine (100) and biotin (0.5). […] The washed biomass is freeze dried.

[3] = tested on: Aurantiochytrium acetophilum HS399; test: Cyanocobalamin and propionate deposition, flask (Example 10); format: cell-based; settings: for Final Propionate: initial 3 g/L; for Cell dry weight: propionate 3 g/L
[4] = tested on: Aurantiochytrium acetophilum HS399; format: cell-based
Procedure: In this implementation, initially (24 h incubation), the culture pH may not be controlled, and the pH of the respective treatments can drift from 7.5 to 8. After 24 h incubation, the desired pH set point of each treatment can be set using the respective organic acids. […] The cultures are aerated at 1.4 vvm and maintained at 27° C. under axenic conditions. […] This medium also contains a trace element solution (5 ml/L) and a vitamin solution (1 ml/L). The trace element solution can contain (g/L): […] […] Residual glucose is analyzed from culture supernatant (5000 g; 5 min) using a colorimetric method based on glucose […] activity. Residual acetate and propionate are analyzed by HPLC using external standard.

[5] = tested on: Aurantiochytrium acetophilum HS399; format: cell-based; settings: for OCFA / Total Fatty Acids / Total Lipids: harvest; for OCFA Productivity / Propionate deposition: 120 h
Procedure: Respective Erlenmeyer flasks (250 mL) are inoculated (1% v/v) in triplicates with a 24 h old culture of A. acetophilum HS399 and incubated in an orbital shaker at 180 rpm and 27° C.
Respective Erlenmeyer flasks contain 100 mL of a medium supplemented with (g/L): dextrose (100), ammonium acetate (4.6), NaCl (12.5), MgSO4 7H2O (2.5), KH2PO4 (0.5), KCl (0.5) and CaCl2 (0.1). This medium also contains trace element solution (5 ml/L) and vitamin solution (1 ml/L). The trace element solution contains (g/L): EDTA di-sodium salt (6), FeCl3 6H2O (0.29), […] (6.84), MnCl2 4H2O (0.86), ZnCl2 (0.06), CoCl2 6H2O (0.026), NiSO4 6H2O (0.052), CuSO4 5H2O (0.002), Na2MoO4H2O (0.005). The vitamin solution contains (mg/L): thiamine (100), biotin (0.5) and cyanocobalamin (0.5).
In this example, respective culture materials are autoclaved (e.g., 121° C., 15 min) and the media is filter sterilized before use. […] Daily samples are collected to analyze the cell dry weight, residual glucose, culture pH (see FIG. 15), and lipid and fatty acid composition of the cultures. Cell dry weights are analyzed by filtration (e.g., 0.2 μm filter media) using a vacuum and washed with a solution of ammonium bicarbonate. Residual glucose is analyzed using a colorimetric method based on glucose […] activity. Biomass for lipid analysis is centrifuged and washed using purified water. The washed biomass is freeze dried. Total lipids are analyzed using Folch method (AOAC 996.06) and the FAMES are analyzed by gas chromatography and flame ionization detection using nonadecanoic (C19:0) acid as an internal standard.

[6] = propionate 0 + 1 + 1 + 1 g/L (Day 5)
[7] = propionate 0 + 2 + 2 + 2 g/L (Day 5)
[8] = propionate 0 + 3 g/L (Day 5), listed as propionate
[9] = propionate 3 g/L (Day 5), listed as propionate

CCC(=O)O [Propionate, propionic acid]
Propionate deposition ([1]; 0 + 3 g/L fed in lipid phase): 58.8 ± 1.9% | Propionate deposition ([1]; 0 + 3 g/L fed in lipid phase, listed as propionate): 58.8% | Propionate deposition ([1]; 3 g/L fed in growth phase): 53.0 ± 1.0% | Propionate deposition ([1]; 3 g/L fed in growth phase, listed as propionate): 53% | OCFA ([2]; propionate 2 g/L): 30.7 ± 1.8 % TFA | Total Fatty Acids ([2]; propionate 2 g/L): 54.8 ± 5.6 % DW | OCFA ([2]; propionate 3 g/L): 50.8 ± 1.1 % TFA | Total Fatty Acids ([2]; propionate 3 g/L): 56.2 ± 0.6 % DW | OCFA ([2]; propionate 4 g/L): 63.0 ± 2.5 % TFA | Total Fatty Acids ([2]; propionate 4 g/L): 39.2 ± 12.4 % DW | OCFA ([2]; propionate 5 g/L): 64.6 ± 0.3 % TFA | Total Fatty Acids ([2]; propionate 5 g/L): 41.0 ± 3.4 % DW | Propionate deposition ([3]; cyanocobalamin 0 μM, listed as Propionic acid): 99.9 ± 5.8 % fed | Propionate deposition ([3]; cyanocobalamin 0 μM, listed as propionate): 99.5 % fed | Propionate deposition ([3]; cyanocobalamin 0.00037 μM): 47.0 ± 0.9 % fed | Propionate deposition ([3]; cyanocobalamin 0.37 μM): 10.3 ± 1.0 % fed | Final Propionate ([3]; cyanocobalamin 0 μM): 0.36 g/L | Final Propionate ([3]; cyanocobalamin 0.00037 μM): 0.1 g/L | Final Propionate ([3]; cyanocobalamin 0.37 μM): 0.06 g/L | Cell dry weight ([3]; cyanocobalamin 0 μM): 35.0 ± 1.2 g/L | Cell dry weight ([3]; cyanocobalamin 0.00037 μM): 32.0 ± 0.7 g/L | Cell dry weight ([3]; cyanocobalamin 0.37 μM): 37.0 ± 1.4 g/L | effect on growth (cell dry weight, glucose) [4]: highly growth inhibitory | Consumed propionate ([4]; pH 5 set point): 2.3 ± 0.2 g/L | Propionic Acid Deposited ([4]; pH 5 set point): 30.9 ± 2.0% | Consumed propionate ([4]; pH 6 set point): 2.4 ± 0.1 g/L | Propionic Acid Deposited ([4]; pH 6 set point): 40.3 ± 1.6% | effect on growth (cell dry weight) ([4]; pH 7): not growth inhibitory | Consumed propionate ([4]; pH 7 set point): 1.0 ± 0.1 g/L | Propionic Acid Deposited ([4]; pH 7 set point): 24.7 ± 1.0% | Total Fatty Acid ([4]; propionic acid titrant, pH 5): 59.2 ± 3.1 % CDW | Total Lipids ([4]; propionic acid titrant, pH 5): 75.0 ± 3.0 % CDW | Total Fatty Acid ([4]; propionic acid titrant, pH 6): 63.4 ± 0.3 % CDW | Total Lipids ([4]; propionic acid titrant, pH 6): 79.5 ± 1.5 % CDW | OCFA ([4]; propionic acid titrant, pH 7): 6.3 % TFA | Total Fatty Acid ([4]; propionic acid titrant, pH 7): 70.3 ± 2.8 % CDW | Total Lipids ([4]; propionic acid titrant, pH 7): 87.5 ± 1.5 % CDW | residual concentration giving some growth inhibition [5]: 1 g/L | increase of OCFAs productivity by feeding propionate merely during lipogenesis ([5]; P3 vs P0+3): approximately 20% | OCFA ([5]; propionate 0 + 1 + 1 + 1 g/L): 29.2 ± 0.4 % TFA | Total Fatty Acids ([5]; propionate 0 + 1 + 1 + 1 g/L): 67.2 ± 5.0 % DW | Total Lipids ([5]; propionate 0 + 1 + 1 + 1 g/L): 79.7 ± 0.6 % DW | OCFA ([5]; propionate 0 + 2 + 2 + 2 g/L): 53.5 ± 0.8 % TFA | Total Fatty Acids ([5]; propionate 0 + 2 + 2 + 2 g/L): 63.5 ± 1.6 % DW | Total Lipids ([5]; propionate 0 + 2 + 2 + 2 g/L): 76.0 ± 1.0 % DW | Total Fatty Acids ([5]; propionate 0 + 3 g/L): 66.0 ± 2.2 % DW | Total Lipids ([5]; propionate 0 + 3 g/L): 79.5 ± 0.5 % DW | OCFA ([5]; propionate 0 + 3 g/L (P0+3)): 27.6 ± 0.1 % TFA | OCFA ([5]; propionate 0 + 3 g/L (P0+3), listed as propionate): 27.4 % TFA | OCFA ([5]; propionate 3 g/L (P3)): 25.5 ± 0.2 % TFA | OCFA ([5]; propionate 3 g/L (P3), listed as propionate): 25.2 % TFA | Total Fatty Acids ([5]; propionate 3 g/L (day 0)): 64.8 ± 1.2 % DW | Total Lipids ([5]; propionate 3 g/L (day 0)): 78.0 ± 0.0 % DW | OCFA Productivity [5, 6]: 1.19 ± 0.03 g/L/day | Propionate deposition [5, 6]: 59.6 ± 1.4% | OCFA Productivity [5, 7]: 1.86 ± 0.04 g/L/day | Propionate deposition [5, 7]: 46.7 ± 0.9% | OCFA Productivity ([5]; propionate 0 + 3 g/L (Day 5)): 1.18 ± 0.02 g/L/day | Propionate deposition ([5]; propionate 0 + 3 g/L (Day 5)): 59.3 ± 1.1% | OCFA Productivity [5, 8]: 1.18 ± 0.02 g/L/day | Propionate deposition [5, 8]: 59.3±1.1% | OCFA Productivity ([5]; propionate 3 g/L (Day 5)): 1.04 ± 0.01 g/L/day | Propionate deposition ([5]; propionate 3 g/L (Day 5)): 52.2 ± 0.7% | OCFA Productivity [5, 9]: 1.18 ± 0.02 g/L/day | Propionate deposition [5, 9]: 52.2±0.7%

From patent US12285034B2, “Human and non-human animal use of microbial anaplerotic oil” (HELIAE DEVELOPMENT, LLC, priority 2017, dated 2025)
